{"source": "ChEMBL document CHEMBL1177713", "about": "“Discovery of 3-[2-(imidazo[1,2-b]pyridazin-3-yl)ethynyl]-4-methyl-N-{4-[(4-methylpiperazin-1-yl)methyl]-3-(trifluoromethyl)phenyl}benzamide (AP24534), a potent, orally active pan-inhibitor of breakpoint cluster region-abelson (BCR-ABL) kinase including the T315I gatekeeper mutant” (J Med Chem, 2010)", "key": {"[1]": {"test": "Oral bioavailability in CD rat at 15 mg/kg by LC-MS/MS analysis", "format": "ADME, organism-based", "conditions": "in vivo"}, "[2]": {"test": "AUC (0 to 24 hrs) in mouse at 30 mg/kg, po by LC-MS/MS analysis", "conditions": "plasma"}, "BaF3 [3]": {"test_system": "BaF3", "test": "cells", "conditions": "Mus musculus, BaF3, 72 h", "description": "Antiproliferative activity against mouse BA/F3 cells expressing ABL T315I mutant after 3 days by MTS assay"}, "BaF3 [4]": {"test_system": "BaF3", "test": "cells", "conditions": "Mus musculus, BaF3, 72 h", "remark": "listed apart in the source", "description": "Antiproliferative activity against mouse BA/F3 cells expressing wild type ABL after 3 days by MTS assay"}, "[5]": {"test": "Volume of distribution in CD rat at 5 mg/kg, iv by LC-MS/MS analysis", "format": "ADME, organism-based", "parameters": "dose 5 mg/kg, route intravenous", "conditions": "in vivo"}, "Rattus norvegicus [6]": {"test_system": "Rattus norvegicus", "test": "Dose normalized AUC (0 to 24 hrs) in CD rat at 15 mg/kg, po by LC-MS/MS analysis", "format": "ADME, organism-based", "parameters": "time < 24 hr, dose 15 mg/kg, route oral", "conditions": "in vivo"}, "[7]": {"test": "Half life in mouse at 30 mg/kg, po by LC-MS/MS analysis", "conditions": "in vivo"}, "[8]": {"test": "Cmax in mouse at 30 mg/kg, po by LC-MS/MS analysis", "conditions": "in vivo"}, "[9]": {"test": "(§1) Cmax in CD rat at 15 mg/kg, po by LC-MS/MS analysis", "format": "ADME, organism-based", "parameters": "dose 15 mg/kg, route oral", "conditions": "CD, in vivo"}, "[10]": {"test": "Half life in CD rat at 15 mg/kg, po by LC-MS/MS analysis", "format": "ADME, organism-based", "parameters": "dose 15 mg/kg, route oral", "conditions": "in vivo"}, "[11]": {"test": "Clearance in CD rat at 5 mg/kg, iv by LC-MS/MS analysis", "format": "ADME, organism-based", "parameters": "dose 5 mg/kg, route intravenous", "conditions": "in vivo"}, "BaF3 [12]": {"test_system": "BaF3", "test": "cells", "conditions": "Mus musculus, BaF3, 72 h", "remark": "listed apart in the source", "description": "Antiproliferative activity against mouse BA/F3 cells expressing wild type ABL after 3 days by MTS assay in presence of 340 uM human serum albumin"}, "[13]": {"test": "Tmax in CD rat at 15 mg/kg, po by LC-MS/MS analysis", "format": "ADME, organism-based", "parameters": "dose 15 mg/kg, route oral", "conditions": "in vivo"}, "BaF3 [14]": {"test_system": "BaF3", "test": "cells", "conditions": "Mus musculus, BaF3, 72 h", "remark": "listed apart in the source", "description": "Antiproliferative activity against mouse BA/F3 cells after 3 days by MTS assay"}, "[15]": {"test": "Half life in CD rat at 5 mg/kg, iv by LC-MS/MS analysis", "format": "ADME, organism-based", "parameters": "dose 5 mg/kg, route intravenous", "conditions": "in vivo"}, "Rattus norvegicus [16]": {"test_system": "Rattus norvegicus", "test": "as §1", "format": "ADME, organism-based", "parameters": "dose 15 mg/kg, route oral", "conditions": "in vivo, BLD = below limit of detection"}, "K562": {"test_system": "K562", "test": "cells", "conditions": "Homo sapiens, K562, 72 h", "description": "Antiproliferative activity against human K562 cells expressing wild type ABL after 3 days by MTS assay"}, "Mus musculus [17]": {"test_system": "Mus musculus", "test": "Plasma concentration in mouse at 30 mg/kg, po after 24 hrs by LC-MS/MS analysis"}, "Mus musculus [18]": {"test_system": "Mus musculus", "test": "Plasma concentmouseion in CD mouse at 30 mg/kg, po after 2 hrs by LC-MS/MS analysis"}, "Mus musculus [19]": {"test_system": "Mus musculus", "test": "Plasma concentmouseion in CD mouse at 30 mg/kg, po after 6 hrs by LC-MS/MS analysis"}}}
{"compound": "Cc1ccc(C(=O)Nc2ccc(CN3CCN(C)CC3)c(C(F)(F)F)c2)cc1C#Cc1cnc2ccccn12", "values": [{"measurement": "bioavailability", "setting": "[1]", "result": 29, "unit": "%"}, {"measurement": "AUC(0-t) at 24 h", "setting": "[2]", "result": 11300, "unit": "ng·h/mL"}, {"measurement": "IC50", "setting": "BaF3 [3]", "result": 0.026, "unit": "µM"}, {"measurement": "IC50", "setting": "BaF3 [4]", "result": 0.0036, "unit": "µM"}, {"measurement": "Vd", "setting": "[5]", "result": 11, "unit": "L/kg"}, {"measurement": "AUC", "setting": "Rattus norvegicus [6]", "result": 386.3, "unit": "ng·h/mL/mg/kg"}, {"measurement": "half-life", "setting": "[7]", "result": 2.9, "unit": "h"}, {"measurement": "Cmax", "setting": "[8]", "result": 986, "unit": "ng/mL"}, {"measurement": "Cmax", "setting": "[9]", "result": 149, "unit": "ng/mL"}, {"measurement": "half-life", "setting": "[10]", "result": 24.7, "unit": "h"}, {"measurement": "clearance", "setting": "[11]", "result": 12.5, "unit": "mL/min/kg"}, {"measurement": "IC50", "setting": "BaF3 [12]", "result": 0.0059, "unit": "µM"}, {"measurement": "Tmax", "setting": "[13]", "result": 6, "unit": "h"}, {"measurement": "IC50", "setting": "BaF3 [14]", "result": 1.57, "unit": "µM"}, {"measurement": "half-life", "setting": "[15]", "result": 10.2, "unit": "h"}]}
{"compound": "Cc1ccc(C(=O)Nc2ccc(CN3CCN(C)CC3)c(C(F)(F)F)c2)cc1C#Cc1cnc2[nH]c(=O)[nH]c2c1", "values": [{"measurement": "IC50", "setting": "BaF3 [3]", "result": 0.031, "unit": "µM"}, {"measurement": "IC50", "setting": "BaF3 [4]", "result": 0.0039, "unit": "µM"}, {"measurement": "Vd", "setting": "[5]", "result": 17.7, "unit": "L/kg"}, {"measurement": "AUC", "setting": "Rattus norvegicus [6]; BLD = below limit of detection", "result": "BLD"}, {"measurement": "Cmax", "setting": "Rattus norvegicus [16]", "result": "BLD"}, {"measurement": "clearance", "setting": "[11]", "result": 40.7, "unit": "mL/min/kg"}, {"measurement": "IC50", "setting": "BaF3 [14]", "result": 1.86, "unit": "µM"}, {"measurement": "half-life", "setting": "[15]", "result": 5, "unit": "h"}]}
{"compound": "Cc1cn(-c2cc(NC(=O)c3ccc(C)c(/C=C/n4cnc5c(N)ncnc54)c3)cc(C(F)(F)F)c2)cn1", "values": [{"measurement": "IC50", "setting": "BaF3 [3]", "result": 0.295, "unit": "µM"}, {"measurement": "IC50", "setting": "K562", "result": 0.0014, "unit": "µM"}]}
{"compound": "CCN1CCN(Cc2ccc(NC(=O)c3ccc(C)c(C#Cc4cnc5cccnn45)c3)cc2C(F)(F)F)CC1", "values": [{"measurement": "bioavailability", "setting": "[1]", "result": 53, "unit": "%"}, {"measurement": "IC50", "setting": "BaF3 [3]", "result": 0.0073, "unit": "µM"}, {"measurement": "IC50", "setting": "BaF3 [4]", "result": 0.001, "unit": "µM"}, {"measurement": "Vd", "setting": "[5]", "result": 13.1, "unit": "L/kg"}, {"measurement": "concentration at 24 h", "setting": "Mus musculus [17]", "result": 8.8, "unit": "ng/mL"}, {"measurement": "AUC", "setting": "Rattus norvegicus [6]", "result": 518, "unit": "ng·h/mL/mg/kg"}, {"measurement": "concentration at 2 h", "setting": "Mus musculus [18]", "result": 622, "unit": "ng/mL"}, {"measurement": "Cmax", "setting": "[9]", "result": 215, "unit": "ng/mL"}, {"measurement": "half-life", "setting": "[10]", "result": 22.3, "unit": "h"}, {"measurement": "clearance", "setting": "[11]", "result": 17, "unit": "mL/min/kg"}, {"measurement": "concentration at 6 h", "setting": "Mus musculus [19]", "result": 387, "unit": "ng/mL"}, {"measurement": "Tmax", "setting": "[13]", "result": 6, "unit": "h"}, {"measurement": "IC50", "setting": "BaF3 [14]", "result": 1.16, "unit": "µM"}, {"measurement": "half-life", "setting": "[15]", "result": 8.9, "unit": "h"}]}
{"compound": "Cc1ccc(C(=O)Nc2cc(-n3ccnc3)cc(C(F)(F)F)c2)cc1C#Cc1cnc2ccccn12", "values": [{"measurement": "bioavailability", "setting": "[1]", "result": 42.4, "unit": "%"}, {"measurement": "IC50", "setting": "BaF3 [3]", "result": 0.471, "unit": "µM"}, {"measurement": "IC50", "setting": "BaF3 [4]", "result": 0.008, "unit": "µM"}, {"measurement": "Vd", "setting": "[5]", "result": 1, "unit": "L/kg"}, {"measurement": "AUC", "setting": "Rattus norvegicus [6]", "result": 5745.9, "unit": "ng·h/mL/mg/kg"}, {"measurement": "Cmax", "setting": "[9]", "result": 2350, "unit": "ng/mL"}, {"measurement": "half-life", "setting": "[10]", "result": 21.6, "unit": "h"}, {"measurement": "clearance", "setting": "[11]", "result": 1.33, "unit": "mL/min/kg"}, {"measurement": "IC50", "setting": "BaF3 [12]", "result": 0.051, "unit": "µM"}, {"measurement": "Tmax", "setting": "[13]", "result": 6, "unit": "h"}, {"measurement": "IC50", "setting": "BaF3 [14]", "result": 9.85, "unit": "µM"}, {"measurement": "half-life", "setting": "[15]", "result": 9.1, "unit": "h"}]}
{"compound": "CN1CCN(Cc2ccc(NC(=O)c3ccc(Cl)c(C#Cc4cnc5cccnn45)c3)cc2C(F)(F)F)CC1", "values": [{"measurement": "bioavailability", "setting": "[1]", "result": 79.2, "unit": "%"}, {"measurement": "AUC(0-t) at 24 h", "setting": "[2]", "result": 6080, "unit": "ng·h/mL"}, {"measurement": "IC50", "setting": "BaF3 [3]", "result": 0.0086, "unit": "µM"}, {"measurement": "IC50", "setting": "BaF3 [4]", "result": 0.0025, "unit": "µM"}, {"measurement": "Vd", "setting": "[5]", "result": 16.7, "unit": "L/kg"}, {"measurement": "AUC", "setting": "Rattus norvegicus [6]", "result": 673.8, "unit": "ng·h/mL/mg/kg"}, {"measurement": "half-life", "setting": "[7]", "result": 2.9, "unit": "h"}, {"measurement": "Cmax", "setting": "[8]", "result": 441, "unit": "ng/mL"}, {"measurement": "Cmax", "setting": "[9]", "result": 302, "unit": "ng/mL"}, {"measurement": "half-life", "setting": "[10]", "result": 20.2, "unit": "h"}, {"measurement": "clearance", "setting": "[11]", "result": 19.7, "unit": "mL/min/kg"}, {"measurement": "Tmax", "setting": "[13]", "result": 6, "unit": "h"}, {"measurement": "IC50", "setting": "BaF3 [14]", "result": 1.87, "unit": "µM"}, {"measurement": "half-life", "setting": "[15]", "result": 9.9, "unit": "h"}]}
{"compound": "CN1CCN(Cc2ccc(NC(=O)c3ccc(F)c(C#Cc4cnc5cccnn45)c3)cc2C(F)(F)F)CC1", "values": [{"measurement": "bioavailability", "setting": "[1]", "result": 62.3, "unit": "%"}, {"measurement": "IC50", "setting": "BaF3 [3]", "result": 0.035, "unit": "µM"}, {"measurement": "IC50", "setting": "BaF3 [4]", "result": 0.0061, "unit": "µM"}, {"measurement": "Vd", "setting": "[5]", "result": 3.1, "unit": "L/kg"}, {"measurement": "concentration at 24 h", "setting": "Mus musculus [17]", "result": 163, "unit": "ng/mL"}, {"measurement": "AUC", "setting": "Rattus norvegicus [6]", "result": 1707.5, "unit": "ng·h/mL/mg/kg"}, {"measurement": "concentration at 2 h", "setting": "Mus musculus [18]", "result": 2480, "unit": "ng/mL"}, {"measurement": "Cmax", "setting": "[9]", "result": 1180, "unit": "ng/mL"}, {"measurement": "half-life", "setting": "[10]", "result": 11.6, "unit": "h"}, {"measurement": "clearance", "setting": "[11]", "result": 6.17, "unit": "mL/min/kg"}, {"measurement": "concentration at 6 h", "setting": "Mus musculus [19]", "result": 2100, "unit": "ng/mL"}, {"measurement": "Tmax", "setting": "[13]", "result": 6, "unit": "h"}, {"measurement": "IC50", "setting": "BaF3 [14]", "result": 6.29, "unit": "µM"}, {"measurement": "half-life", "setting": "[15]", "result": 5.9, "unit": "h"}]}
